Where “and” joins values, the source holds several entries; their conditions need not be identical. Equal entries are not always repeated.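 Compound exposure: 48 hours, 5 concentrations, 96-well plates. GI50: concentration for 50% inhibition of growth. TGI: total growth inhibition.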
Key:
Test in all cases: NCI tumour cell line growth inhibition, 48 h
HCT-116 colon = system: HCT-116 colon
SN12C renal = system: SN12C renal
OVCAR-3 ovarian = system: OVCAR-3 ovarian
SNB-75 CNS = system: SNB-75 CNS
DU-145 prostate = system: DU-145 prostate
NCI-H522 lung = system: NCI-H522 lung
RXF 393 renal = system: RXF 393 renal
TK-10 renal = system: TK-10 renal
SK-MEL-5 melanoma = system: SK-MEL-5 melanoma
UACC-62 melanoma = system: UACC-62 melanoma
T-47D breast = system: T-47D breast
IGROV1 ovarian = system: IGROV1 ovarian
SF-539 CNS = system: SF-539 CNS
HS 578T breast = system: HS 578T breast
HL-60(TB) leukemia = system: HL-60(TB) leukemia
NCI/ADR-RES ovarian = system: NCI/ADR-RES ovarian

Row | Structure (SMILES) | TGI (HCT-116 colon) | TGI (SN12C renal) | TGI (OVCAR-3 ovarian) | TGI (SNB-75 CNS) | TGI (DU-145 prostate) | TGI (NCI-H522 lung) | TGI (RXF 393 renal) | TGI (TK-10 renal) | TGI (SK-MEL-5 melanoma) | TGI (UACC-62 melanoma) | TGI (T-47D breast) | TGI (IGROV1 ovarian) | TGI (SF-539 CNS) | TGI (HS 578T breast) | TGI (HL-60(TB) leukemia) | GI50 (HCT-116 colon) | GI50 (NCI/ADR-RES ovarian) | TGI (NCI/ADR-RES ovarian) | GI50 (NCI-H522 lung) | GI50 (T-47D breast)
1 | CC(=O)[C@@H]1[C@@H](OC(=O)CCC(C)COC2OC(CO)C(O)C(O)C2O)C[C@H]2[C@@H]3CC=C4C[C@@H](OC5OC(CO)C(OC6OC(C)C(O)C(O)C6O)C(O)C5OC5OC(C)C(O)C(O)C5O)CC[C@]4(C)[C@H]3CC[C@]12C (some centres undefined) | > 100 µM | > 100 µM | > 100 µM | > 100 µM | > 100 µM | 97 µM | > 100 µM | > 100 µM | > 100 µM | > 100 µM | > 100 µM | – | – | – | – | – | – | – | – | –
2 | CC(C)(C)c1cc(C(=O)Nc2cc(Br)c(Br)cc2S(N)(=O)=O)cc(C(C)(C)C)c1O | 20.5 µM | 21.2 µM | 21.1 µM | 21.5 µM | 29.2 µM | 24.3 µM | 23.1 µM | 25.5 µM | 25 µM | 23.1 µM | 15.6 µM | 26.6 µM | 32.7 µM | 30.5 µM | – | – | – | – | – | –
3 | O=C(Nn1c(-c2ccccc2)nc2ccccc2c1=O)c1ccc(CS)cc1 | > 100 µM | > 100 µM | > 100 µM | > 100 µM | > 100 µM | > 100 µM | > 100 µM | > 100 µM | > 100 µM | > 100 µM | > 100 µM | 88.3 µM | 67.7 µM | > 100 µM | 50.1 µM | – | – | – | – | –
4 | CC[C@]1(O)C[C@H]2CN(CCc3c([nH]c4ccccc34)[C@@](C(=O)OC)(c3cc4c(cc3OC)N(C=O)[C@H]3[C@@](O)(C(=O)OC)[C@H](OC(C)=O)[C@]5(CC)C=CCN6CC[C@]43[C@@H]65)C2)C1 | – | – | – | – | – | 0.226 µM and 0.143 µM | 17.5 µM and 74.1 µM | – | – | 38.4 µM and 75.1 µM | 399 µM and 171 µM | – | – | – | – | 0.0011 µM | 1.18 µM and 0.536 µM and 1.95 µM | 4.87 µM and 12.5 µM and 8.04 µM | 0.00705 µM | 112 µM
5 | COc1cc(C2SCC(=O)N2c2cc(Cl)c(Cl)cc2Cl)cc(OC)c1OC (centres undefined) | > 100 µM | > 100 µM | > 100 µM | – | > 100 µM | > 100 µM | – | > 100 µM | > 100 µM | 97.6 µM | – | > 100 µM | > 100 µM | > 100 µM | > 100 µM | – | – | > 100 µM | – | –
6 | Nc1ccc(S(=O)(=O)Nc2nnc(S(N)(=O)=O)s2)cc1 | > 100 µM | – | – | > 100 µM | > 100 µM | > 100 µM | > 100 µM | > 100 µM | – | > 100 µM | > 100 µM | – | > 100 µM | – | > 100 µM | – | – | > 100 µM | – | –
7 | CCNC(C)Cc1ccccc1 (centres undefined) | > 100 µM | > 100 µM | > 100 µM | > 100 µM | – | > 100 µM | > 100 µM | > 100 µM | > 100 µM | > 100 µM | – | > 100 µM | > 100 µM | – | > 100 µM | – | – | – | – | –
8 | Oc1ccc(-c2csc(NNC3=NC/C(=C/c4ccc5c(c4)OCO5)S3)n2)cc1O | > 100 µM | > 100 µM | – | 38.9 µM | > 100 µM | – | – | 72.4 µM | > 100 µM | – | > 100 µM | 65.3 µM | > 100 µM | – | – | – | – | > 100 µM | – | –
9 | CC[C@@]1(N(C)C)C(=O)OCc2c1cc1n(c2=O)Cc2cc3ccccc3nc2-1 | > 100 µM | – | > 100 µM | 34.5 µM | 98.1 µM | 28.7 µM | 31 µM | > 100 µM | > 100 µM | 56.6 µM | 52.6 µM | – | – | – | – | – | – | 51.9 µM | – | –
10 | C=C(C)C(=O)O[C@H]1C/C(CO)=C/CCC(=C)C(OC(C)=O)[C@H]2OC(=O)C(=C)[C@H]12 (some centres undefined) | 13.7 µM | 30.8 µM | 18.7 µM | 9.12 µM | 37.4 µM | 11 µM | – | – | 28.3 µM | 23 µM | 28 µM | 48.2 µM | 33.6 µM | > 100 µM | – | – | – | 61.2 µM | – | –
11 | CCC(C)n1c(C)nc2c1C(=O)c1ccccc1C2=O (centres undefined) | > 100 µM | > 100 µM | > 100 µM | > 100 µM | – | > 100 µM | > 100 µM | > 100 µM | > 100 µM | > 100 µM | – | > 100 µM | > 100 µM | – | > 100 µM | – | – | – | – | –
12 | O=S(=O)(O)c1c(Cl)cc(O)c2ncccc12 | > 100 µM | > 100 µM | > 100 µM | > 100 µM | > 100 µM | – | > 100 µM | – | > 100 µM | > 100 µM | > 100 µM | > 100 µM | > 100 µM | – | – | – | – | > 100 µM | – | –
13 | OC1[C@H]([C@H]2CCCC[C@@H]2O)CCC[C@@H]1[C@@H]1CCCC[C@H]1O (some centres undefined) | > 100 µM | > 100 µM | > 100 µM | > 100 µM | – | > 100 µM | > 100 µM | > 100 µM | > 100 µM | > 100 µM | – | > 100 µM | > 100 µM | – | > 100 µM | – | – | – | – | –
14 | COc1cc(C=O)ccc1Oc1nnnn1-c1ccccc1 | > 100 µM | > 100 µM | > 100 µM | > 100 µM | > 100 µM | > 100 µM | > 100 µM | > 100 µM | 59.2 µM | – | 58 µM | > 100 µM | – | > 100 µM | – | – | – | > 100 µM | – | –
15 | COc1ccc2nc3cc(Cl)ccc3c(NCCCN(Cc3cc(OC)c(OC)c(OC)c3)Cc3cc(OC)c(OC)c(OC)c3)c2c1 | 1.7 µM | 41 µM | 34.6 µM | – | 27.3 µM | 25.4 µM | 15.2 µM | 44.1 µM | 2.61 µM | 32.3 µM | 47.4 µM | 35.1 µM | 10.5 µM | 36.6 µM | – | – | – | 86.5 µM | – | –
16 | CC(=O)OC12/C(=N/O)CCCCCC1c1ccccc12 (centres undefined) | > 100 µM | > 100 µM | – | > 100 µM | – | 98.9 µM | > 100 µM | > 100 µM | > 100 µM | > 100 µM | – | – | – | – | > 100 µM | – | – | – | – | –
17 | O=c1sc2c(s1)SSSSS2 | > 50 µM | > 50 µM | > 50 µM | – | > 50 µM | > 50 µM | > 50 µM | > 50 µM | > 50 µM | > 50 µM | > 50 µM | > 50 µM | > 50 µM | – | – | – | – | > 50 µM | – | –

From PubChem BioAssay (NCI)
